Measurements taken from US4226883A, “Carbamate derivatives and method for manufacture thereof” (priority 1974, dated 1980).
Where two headings read alike, the source gives them in different places.

How the values were obtained:
[1] = system: resistant green rice leafhoppers (R); conditions: for Insecticidal Activity R/S (resistant ratio): ratio of the resistant strain to the susceptible strain (LD50), 1440 min
How it was run: (§1)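 Test compounds were diluted in acetone and applied topically to the thorax of female green rice leafhoppers at 0.2 μl per head. Insects were then held in cups with […] at 26±1 °C, and mortality was counted after 24 h. LD50 for mixtures is expressed as total dosage.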

[2] = system: green rice leafhoppers of the strain RN; experiment: Test Example 3: dust spray test (20 mesh metal gauze cylinder); format: in vivo, Nephotettix cincticeps; conditions: 24 hr
[3] = system: Culex pipiens pallens immunized against organophosphoric preparations, last larval state; experiment: Test Example 9 (W.H.O. method): mosquito larvae test; format: in vivo; conditions: Culex pipiens, 24 h, read-out: Effect of compound used singly, LD50 (Table 16)
Procedure: (1) An ethyl alcohol solution of each test compound was diluted with water to varying concentrations in the range of from 0.01 to 1.0 ppm.
(2) A 200-ml portion of each solution of a different concentration was placed in a 300-ml beaker. Then 30 test insects were plunged into the solution and then removed.
(3) The insects removed from the solution were kept in a greenhouse at a constant temperature of 25±1° C. for 24 hours. At the end of 24 hours of standing, a count was taken of the number of insects that had died by that time.
The test described above was repeated twice or thrice.

[4] = system: citrus red mites (Panonychus citri McGregor) immunized from Dimethoate; experiment: whole plant or invertebrate; conditions: foliar, 24 h, read-out: Mortality (%), Concentration 250 ppm
[5] = system: sensitive green rice leafhoppers (S); conditions: susceptible strain, topical
How it was run: as §1

[6] = target: cholinesterase (ChE), susceptible strain; experiment: Inhibition of cholinesterase (acetylthiocholine method), susceptible strain enzyme; format: biochemical, green rice leafhopper, Nephotettix cincticeps; conditions: 50% inhibition concentration, 30° C. 30 min with inhibitor, read-out: Inhibition of Cholinesterase I50 (M) S
Procedure: The activity of ChE was performed by the acethyethiocholine method [Ellman (1961), Biochemical Pharmacology 7: 88-95].
[…]. After centrifuged (30,000 g, 10 min.), the supernatant was used as the source of ChE.
(§2) (2) Inhibition: 1.0 ml of enzyme solution was incubated with 0.1 ml of inhibitor which diluted with acetone at 30° C. for 30 min. ((2) solution).
(3) Determination of ChE activity: 1.0 ml of acetylthiochline (3.5/2×10^-2 M), 1.0 ml of DTNB (5,5'-dithiobis-2-nitrobenzoic acid, 2.5×10^-4 M) and 4.0 ml of phosphate buffer (1/15 M, pH 7.4) were added to the (2) solution and incubated at 30° C. for 10 min. After incubation, […] of eserine (2×10^-3 M) was added in order to stop the enzyme reaction and the optical density of the yellow solution was measured at 412 mμ on the spectrophotometer.

[7] = system: cholinesterase (ChE), resistant strain; format: biochemical, green rice leafhopper, Nephotettix cincticeps; conditions: for Inhibition of Cholinesterase R/S (resistant ratio): ratio of the resistant strain to the susceptible strain (I50), 30 min; for IC50: resistant strain, 50% inhibition concentration, 30° C. 30 min with inhibitor, read-out: Inhibition of Cholinesterase I50 (M) R
Procedure: After centrifuged (30,000 g, 10 min.), the supernatant was used as the source of ChE.
as §2
(3) Determination of ChE activity: 1.0 ml of acetylthiochline (3.5/2×10^-2 M), 1.0 ml of DTNB (5,5'-dithiobis-2-nitrobenzoic acid, 2.5×10^-4 M) and 4.0 ml of phosphate buffer (1/15 M, pH 7.4) were added to the (2) solution and incubated at 30° C. for 10 min.

Row | SMILES | Insecticidal Activity R/S (resistant ratio) [1] | mortality at 100 mg/cylinder ([2]; 2% dust, 100 mg, read-out: Mortality (%) after 24 hr., 100 mg Spray (Table 7)) | mortality at 250 mg/cylinder ([2]; 2% dust, 250 mg, read-out: Mortality (%) after 24 hr., 250 mg Spray (Table 7)) | mortality at 100 mg/cylinder ([2]; Table 8, dust 100 mg, read-out: Mortality (%) after 24 hr., Spray Volume 100 mg) | mortality at 250 mg/cylinder ([2]; Table 8, dust 250 mg, read-out: Mortality (%) after 24 hr., Spray Volume 250 mg) | LC50 [3] | mortality at 250 ppm [4] | Insecticidal Activity (after 24 hrs.) LD50 (μg/g) S [5] | Insecticidal Activity (after 24 hrs.) LD50 (μg/g) R ([1]; resistant strain, topical, 24 hrs) | IC50 [6] | Inhibition of Cholinesterase R/S (resistant ratio) [7] | IC50 [7]
1 | CCCNC(=O)Oc1cccc(C)c1 [Compound 26, 3-methylphenyl-N-n-propylcarbamate] | 0.6 | 70% | 100% | 70% | 100% | > 1 µg/mL | 85% |  |  |  |  | 
2 | CNC(=O)Oc1cccc(C(C)(C)C)c1 [Compound 32, 3-tert-butylphenyl-N-methylcarbamate, reference compound] | 31.3 |  |  |  |  |  |  | 1.6 µg/g | 50.0 µg/g | 7.2e-07 M | 16.6 | 1.2e-05 M
3 | CCc1ccc(OC(=O)NC)cc1CC [Compound 50, reference compound] |  |  |  |  |  |  | 70% |  |  | 1.1e-06 M | 46.4 | 5.1e-05 M
